The target in one test is T1, CB2 receptor (hCB2) (Homo sapiens, UniProt P34972).
T1 construct: gene CNR2
As to the kind of experiment: radioligand competition ([3H]CP55940) on HEK293 membranes expressing hCB2; agonist in CRE-Luc assay. The format is binding. In general terms: Loss of bound radioactivity is the signal in a displacement assay; it reports binding, not function.

The next test concerns the target T2, PPARγ (Homo sapiens, UniProt P37231).
T2 construct: gene PPARG
T2 sequence (P37231 1-505): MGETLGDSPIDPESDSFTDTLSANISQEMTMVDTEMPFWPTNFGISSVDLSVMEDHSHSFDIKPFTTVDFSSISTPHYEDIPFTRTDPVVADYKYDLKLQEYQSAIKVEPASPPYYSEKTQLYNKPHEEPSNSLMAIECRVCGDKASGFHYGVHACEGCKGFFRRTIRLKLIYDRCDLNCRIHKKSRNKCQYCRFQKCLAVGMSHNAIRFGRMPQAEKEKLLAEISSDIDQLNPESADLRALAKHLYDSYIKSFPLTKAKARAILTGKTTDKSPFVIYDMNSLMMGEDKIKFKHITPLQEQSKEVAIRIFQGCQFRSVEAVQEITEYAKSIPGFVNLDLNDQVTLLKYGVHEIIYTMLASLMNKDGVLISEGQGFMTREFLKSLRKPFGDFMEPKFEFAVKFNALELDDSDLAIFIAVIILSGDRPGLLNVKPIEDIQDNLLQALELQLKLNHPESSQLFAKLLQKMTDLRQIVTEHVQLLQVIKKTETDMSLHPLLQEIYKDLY
As to the kind of experiment: fluorescence polarization competition (PolarScreen PPARγ Competitor Assay); GAL4-PPARγ transactivation. The test is classed as binding. In general terms: Fluorescence polarisation rises when a labelled molecule tumbles more slowly, as on binding a larger partner.

Experimental findings from article PMC4757881 (Scientific Reports, 2016) are described below.

The term Ki denotes a measure of affinity in units of concentration, obtained from inhibition or displacement. Read a low Ki as higher affinity. The IC50 is the midpoint of a concentration-inhibition curve. A lower IC50 goes with higher potency.

T1 sequence (P34972 whole entry): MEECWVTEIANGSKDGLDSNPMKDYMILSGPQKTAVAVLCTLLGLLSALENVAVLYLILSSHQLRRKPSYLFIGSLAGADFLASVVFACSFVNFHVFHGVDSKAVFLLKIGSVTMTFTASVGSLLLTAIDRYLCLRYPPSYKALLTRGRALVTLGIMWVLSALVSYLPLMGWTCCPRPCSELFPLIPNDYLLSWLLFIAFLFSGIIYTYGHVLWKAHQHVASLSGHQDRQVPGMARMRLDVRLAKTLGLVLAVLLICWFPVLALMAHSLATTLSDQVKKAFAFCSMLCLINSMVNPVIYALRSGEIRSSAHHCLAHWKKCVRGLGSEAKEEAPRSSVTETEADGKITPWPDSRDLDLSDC

In turn, `C=C(C)[C@@H]1CCC(C)=C[C@H]1C1=C(O)C(=O)C(CCCCC)=C(NCc2ccccc2)C1=O` [VCE-004.8] came in with a Ki on CB2 receptor (hCB2) of 170 ± 50 nM. Moreover, the IC50 on PPARγ came to 1700 nM.
